From US10947213B1 (Merck Patent GmbH, priority 2015, dated 2021)
Counter-ions that a name gives are not always drawn.

Each compound was assayed against T1, TLR7/NFKb HEK cells (Homo sapiens, UniProt Q9NYK1) (assay: HEK Cell Assay (TLR7/NFKb reporter, Steady-Glo luciferase readout)). Conditions: 30 min compound preincubation, then R*48 agonist for 5 hours, read-out: Potency.
T1 construct: expressed in transfected cells; host or cells: HEK cells (TLR7/NFKb reporter line)
T1 sequence (Q9NYK1 27-1049): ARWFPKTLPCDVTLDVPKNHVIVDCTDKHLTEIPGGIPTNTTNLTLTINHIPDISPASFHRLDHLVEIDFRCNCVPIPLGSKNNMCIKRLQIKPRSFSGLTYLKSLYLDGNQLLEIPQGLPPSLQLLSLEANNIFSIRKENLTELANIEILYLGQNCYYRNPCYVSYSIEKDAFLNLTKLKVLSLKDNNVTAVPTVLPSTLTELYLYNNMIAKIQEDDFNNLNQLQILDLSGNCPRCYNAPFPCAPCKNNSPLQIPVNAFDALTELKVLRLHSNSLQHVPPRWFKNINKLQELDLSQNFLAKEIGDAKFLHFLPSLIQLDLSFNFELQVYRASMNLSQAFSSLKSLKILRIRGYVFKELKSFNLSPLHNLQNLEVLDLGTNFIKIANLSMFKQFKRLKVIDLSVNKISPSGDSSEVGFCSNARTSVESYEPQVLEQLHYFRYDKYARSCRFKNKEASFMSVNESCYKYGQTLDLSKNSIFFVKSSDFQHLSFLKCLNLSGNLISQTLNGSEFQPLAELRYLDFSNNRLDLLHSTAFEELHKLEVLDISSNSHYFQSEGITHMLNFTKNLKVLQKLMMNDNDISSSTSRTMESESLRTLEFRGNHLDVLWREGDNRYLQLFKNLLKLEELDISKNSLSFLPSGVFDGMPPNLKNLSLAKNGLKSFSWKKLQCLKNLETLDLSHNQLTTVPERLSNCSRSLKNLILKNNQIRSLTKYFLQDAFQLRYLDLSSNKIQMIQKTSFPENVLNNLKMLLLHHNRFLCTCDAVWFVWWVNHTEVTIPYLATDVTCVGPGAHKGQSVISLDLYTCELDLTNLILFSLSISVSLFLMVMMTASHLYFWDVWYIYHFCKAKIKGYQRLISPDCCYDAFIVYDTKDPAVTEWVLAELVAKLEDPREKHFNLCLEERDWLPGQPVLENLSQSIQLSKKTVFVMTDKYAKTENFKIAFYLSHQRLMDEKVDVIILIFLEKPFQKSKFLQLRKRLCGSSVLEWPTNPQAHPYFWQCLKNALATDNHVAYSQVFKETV
Type: cell-based
Summary of the method: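 Steady-Glo luminescence after 5 h stimulation with R*48 agonist, following 30 min compound preincubation. Assay run in HEK cells carrying a TLR7/NFKb luciferase reporter, plated at 5000 cells/well and grown 24 h at 37° C (10% CO2) before treatment.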

| IC50 [nM] | Compound |
| --- | --- |
| < 1000 | N#Cc1ccc(N2C[C@H](NC(=O)CC3CCC(F)(F)CC3)C[C@H](C(F)(F)F)C2)c2cccnc12 [Compound 584, N-[(3R,5S)-1-(8-Cyano-quinolin-5-yl)-5-trifluoromethyl-piperidin-3-yl]-2-(4,4-difluoro-cyclohexyl)-acetamide] |
| < 1000 | CCN(CC)CC(=O)NCC1CCN(c2ccc(C#N)c3ncccc23)CC1 [Compound 398, N-[1-(8-Cyano-quinolin-5-yl)-piperidin-4-ylmethyl]-2-diethylamino-acetamide] |
| < 1000 | C[C@H]1C[C@@H](NC(=O)CC2CCN(C)C2)CN(c2ccc(C(F)F)c3ncccc23)C1 (stereo partly drawn) [Compound 307, N-[(3R,5S)-1-[8-(difluoromethyl)quinolin-5-yl]-5-methylpiperidin-3-yl]-2-(1-methylpyrrolidin-3-yl)acetamide] |
| < 1000 | C[C@H]1C[C@@H](NC(=O)C(C)(C)C2CCN(C)CC2)CN(c2ccc(C#N)c3nccnc23)C1 [Compound 349, N-[(3R,5S)-1-(8-cyanoquinoxalin-5-yl)-5-methylpiperidin-3-yl]-2-methyl-2-(1-methylpiperidin-4-yl)propanamide] |
| 1000 to 10000 | N#Cc1ccc(N2C[C@H](N)C[C@H](F)C2)c2nccnc12 [Compound 499, 8-((3R,5S)-3-Amino-5-fluoro-piperidin-1-yl)-quinoxaline-5-carbonitrile hydrochloride] |
| > 10000 | C[C@H]1C[C@@H](NC(=O)CN(C)C)CN(c2ccc(C(N)=O)c3ncccc23)C1 [Compound 186, 5-[(3R,5S)-3-[2-(dimethylamino)acetamido]-5-methylpiperidin-1-yl]quinoline-8-carboxamide] |
| < 1000 | C[C@H]1C[C@@H](NC(=O)C(N)C(F)(F)F)CN(c2ccc(C(F)F)c3ncccc23)C1 (single isomer, unassigned) [Compound 208] |
| 1000 to 10000 | N#Cc1ccc(N2CCC(F)C(N)C2)c2nccnc12 (centres unmarked) [Compound 524, 8-(3-Amino-4-fluoro-piperidin-1-yl)-quinoxaline-5-carbonitrile hydrochloride] |
| < 1000 | CC(C(=O)NC1CN(c2ccc(C#N)c3nccnc23)CC(F)(F)C1)N1CCC1 (single isomer, unassigned) [Compound 507] |
| 1000 to 10000 | CCN(CC)CCNCC1CCN(c2ccnc3ccc(F)cc23)CC1 [Compound 375, N,N-Diethyl-N′-[1-(6-fluoro-quinolin-4-yl)-piperidin-4-ylmethyl]-ethane-1,2-diamine] |
| < 1000 | Cc1ccc(N2C[C@@H](C)C[C@@H](N)C2)c2cccnc12 [Compound 462, (3R,5S)-5-Methyl-1-(8-methyl-quinolin-5-yl)-piperidin-3-ylamine hydrochloride] |
| 1000 to 10000 | CCN(CC)CC(=O)NCC1CCN(c2ccc(C#N)c3ncncc23)CC1 [Compound 395, N-[1-(8-Cyano-quinazolin-5-yl)-piperidin-4-ylmethyl]-2-diethylamino-acetamide] |
| 1000 to 10000 | N#Cc1ccc(N2CC(NC(=O)CCC(=O)N3CCC3)CC(C(F)(F)F)C2)c2cccnc12 (single isomer, unassigned) [Compound 495] |
| 1000 to 10000 | C[C@H]1C[C@@H](NC(=O)[C@H](C)N)CN(c2ccnc3nccnc23)C1 [Compound 27, (S)-2-amino-N-((3R,5S)-5-methyl-1-(pyrido[2,3-b]pyrazin-8-yl)piperidin-3-yl)propanamide] |
| < 1000 | N#Cc1ccc(N2CCC(C(=O)NCCN3CCC3)CC2)c2cccnc12 [Compound 439, 1-(8-Cyano-quinolin-5-yl)-piperidine-4-carboxylic Acid (2-azetidin-1-yl-ethyl)-amide] |
| < 1000 | C[C@@H]1CN(c2ccc(C#N)c3nccnc23)C[C@H](CN2CCC(N3CCOCC3)CC2)O1 [Compound 467, 8-[(2R,6S)-2-methyl-6-{[4-(morpholin-4-yl)piperidin-1-yl]methyl}morpholin-4-yl]quinoxaline-5-carbonitrile] |

| IC50 [nM] | Compound |
| --- | --- |
| < 1000 | CN1CCC(CC(=O)NC2CN(c3ccc(C#N)c4nccnc34)CC(F)(F)C2)CC1 (racemic) [Compound 504, N-[1-(8-Cyano-quinoxalin-5-yl)-5,5-difluoro-piperidin-3-yl]-2-(1-methyl-piperidin-4-yl)-acetamide] |
| < 1000 | CCN(CC)CCNC(=O)C1CCN(c2ccc(C(F)(F)F)c3ncccc23)CC1 [Compound 446, 1-(8-Trifluoromethyl-quinolin-5-yl)-piperidine-4-carboxylic Acid (2-diethylamino-ethyl)-amide] |
| < 1000 | C[C@H]1C[C@@H](NC(=O)CN2CCN(C)CC2)CN(c2ccc(C(F)(F)F)c3nccnc23)C1 [Compound 259, N-[(3R,5S)-5-methyl-1-[8-(trifluoromethyl)quinoxalin-5-yl]piperidin-3-yl]-2-(4-methylpiperazin-1-yl)acetamide] |
| < 1000 | CN[C@@H]1C[C@H](C)CN(c2ccc(C#N)c3nccnc23)C1 [Compound 16, 8-((3S,5R)-3-methyl-5-(methylamino)piperidin-1-yl)quinoxaline-5-carbonitrile hydrochloride] |
| < 1000 | C#CCC(=O)N[C@@H]1C[C@H](C)CN(c2ccc(C(F)(F)F)c3ncccc23)C1 [Compound 473, But-3-ynoic acid [(3R,5S)-5-methyl-1-(8-trifluoromethyl-quinolin-5-yl)-piperidin-3-yl]-amide] |
| 1000 to 10000 | CCN1CCC[C@H]1C(=O)NC1CC(C(F)(F)F)CN(c2ccc(C#N)c3ncccc23)C1 (single isomer, unassigned) [Compound 438] |
| 1000 to 10000 | CCN(CC)CCNCC1CCN(c2c(C)c(C)nc3ccc(F)cc23)CC1 [Compound 385, N,N-Diethyl-N′-[1-(6-fluoro-2,3-dimethyl-quinolin-4-yl)-piperidin-4-ylmethyl]-ethane-1,2-diamine] |
| 1000 to 10000 | C[C@H]1C[C@@H](NC(=O)CN2CC(O)C2)CN(c2ccc(C(F)F)c3ncccc23)C1 [Compound 308, N-[(3R,5S)-1-[8-(difluoromethyl)quinolin-5-yl]-5-methylpiperidin-3-yl]-2-(3-hydroxyazetidin-1-yl)acetamide] |
| 1000 to 10000 | CCN(CC)CCNCC1CCN(c2ccnc3ccc(OC)cc23)CC1 [Compound 382, N,N-Diethyl-N′-[1-(6-methoxy-quinolin-4-yl)-piperidin-4-ylmethyl]-ethane-1,2-diamine] |
| > 10000 | CC(C)[C@H](O)C(=O)N[C@@H]1C[C@H](C(F)(F)F)CN(c2ccnc3nccnc23)C1 [Compound 89, (2S)-2-hydroxy-3-methyl-N-[(3R,5S)-1-[pyrido[2,3-b]pyrazin-8-yl]-5-(trifluoromethyl)piperidin-3-yl]butanamide hydrochloride] |
| < 1000 | CC(C(=O)N[C@@H]1C[C@H](C)CN(c2ccc(C#N)c3nccnc23)C1)N1CC(N)C1 (stereo partly drawn) [Compound 267, 2-(3-aminoazetidin-1-yl)-N-[(3R,5S)-1-(8-cyanoquinoxalin-5-yl)-5-methylpiperidin-3-yl]propanamide] |
| < 1000 | C[C@H]1C[C@@H](NC(=O)CN(C)C)CN(c2ccc(C#N)c3ncncc23)C1 [Compound 447, N-[(3R,5S)-1-(8-Cyano-quinazolin-5-yl)-5-methyl-piperidin-3-yl]-2-dimethylamino-acetamide] |
| < 1000 | C[C@@H]1CN(c2ccnc3nccnc23)C[C@H](C(=O)NC2CCN(C)CC2)O1 [Compound 65, (2R,6R)-6-methyl-N-(1-methylpiperidin-4-yl)-4-(pyrido[2,3-b]pyrazin-8-yl)morpholine-2-carboxamide] |
| < 1000 | C[C@H]1C[C@@H](NC(=O)CN2CCC(C)(C)C2)CN(c2ccc(C(F)(F)F)c3ncccc23)C1 [Compound 573, 2-(3,3-Dimethyl-pyrrolidin-1-yl)-N-[(3R,5S)-5-methyl-1-(8-trifluoromethyl-quinolin-5-yl)-piperidin-3-yl]-acetamide] |
| 1000 to 10000 | CCN(CC)CCNCC1CCN(c2cc(C)nc3cc(F)ccc23)CC1 [Compound 386, N,N-Diethyl-N′-[1-(7-fluoro-2-methyl-quinolin-4-yl)-piperidin-4-ylmethyl]-ethane-1,2-diamine] |

| Compound | IC50 [nM] |
| --- | --- |
| N#Cc1ccc(N2C[C@@H](NC(=O)CN3CCOCC3)C[C@@H](C(F)(F)F)C2)c2cccnc12 (racemic) [Compound 424, cis-N-[1-(8-Cyano-quinolin-5-yl)-5-trifluoromethyl-piperidin-3-yl]-2-morpholin-4-yl-acetamide] | 1000 to 10000 |
